Data: ChEMBL document CHEMBL5723582, “Data for DCP probe T-10430” (2024)

Key:
[1] = target: Probable G-protein coupled receptor 153 (Homo sapiens) (UniProt Q6NV75); assay: RLU of GPR153 at 1.0 µM in the […] PRESTO-Tango GPCRome screen; conditions: Compound concentration 1.0 uM
[2] = target: G-protein coupled receptor family C group 5 member D (Homo sapiens) (UniProt Q9NZD1); assay: RLU of GPRC5D at 1.0 µM in the […] PRESTO-Tango GPCRome screen; conditions: Compound concentration 1.0 uM
[3] = target: Alpha-2A adrenergic receptor (Homo sapiens) (UniProt P08913); assay: RLU of ADRA2A at 1.0 µM in the […] PRESTO-Tango GPCRome screen; conditions: Compound concentration 1.0 uM
[4] = target: G-protein coupled receptor 78 (Homo sapiens) (UniProt Q96P69); assay: RLU of GPR78 at 1.0 µM in the […] PRESTO-Tango GPCRome screen; conditions: Compound concentration 1.0 uM
[5] = target: Free fatty acid receptor 2 (Homo sapiens) (UniProt O15552); assay: RLU of FFA2 (GPR43) at 1.0 µM in the […] PRESTO-Tango GPCRome screen; conditions: Compound concentration 1.0 uM
[6] = target: G-protein coupled receptor family C group 5 member C (Homo sapiens) (UniProt Q9NQ84); assay: RLU of GPRC5C at 1.0 µM in the […] PRESTO-Tango GPCRome screen; conditions: Compound concentration 1.0 uM
[7] = target: Type-1 angiotensin II receptor (Homo sapiens) (UniProt P30556); assay: RLU of AGTR1 at 1.0 µM in the […] PRESTO-Tango GPCRome screen; conditions: Compound concentration 1.0 uM
[8] = target: Beta-2 adrenergic receptor (Homo sapiens) (UniProt P07550); assay: RLU of ADRB2 at 1.0 µM in the […] PRESTO-Tango GPCRome screen; conditions: Compound concentration 1.0 uM
[9] = target: N-formyl peptide receptor 2 (Homo sapiens) (UniProt P25090); assay: RLU of FPR2 at 1.0 µM in the […] PRESTO-Tango GPCRome screen; conditions: Compound concentration 1.0 uM
N-formyl peptide receptor 2 (Homo sapiens), sequence (P25090 whole entry): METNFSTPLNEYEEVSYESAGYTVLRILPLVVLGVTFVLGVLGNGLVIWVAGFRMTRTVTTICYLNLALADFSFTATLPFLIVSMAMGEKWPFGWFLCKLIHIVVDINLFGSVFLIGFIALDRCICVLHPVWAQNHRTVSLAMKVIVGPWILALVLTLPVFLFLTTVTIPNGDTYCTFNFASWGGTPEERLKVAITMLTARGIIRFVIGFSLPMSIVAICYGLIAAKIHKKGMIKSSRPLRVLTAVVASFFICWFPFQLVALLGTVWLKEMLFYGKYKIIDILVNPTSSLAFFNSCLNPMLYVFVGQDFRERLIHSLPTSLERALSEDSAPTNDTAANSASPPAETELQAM

[10] = target: Calcitonin gene-related peptide type 1 receptor (Homo sapiens) (UniProt Q16602); assay: RLU of CALCRL at 1.0 µM in the […] PRESTO-Tango GPCRome screen; conditions: Compound concentration 1.0 uM
Calcitonin gene-related peptide type 1 receptor (Homo sapiens), sequence (Q16602 whole entry): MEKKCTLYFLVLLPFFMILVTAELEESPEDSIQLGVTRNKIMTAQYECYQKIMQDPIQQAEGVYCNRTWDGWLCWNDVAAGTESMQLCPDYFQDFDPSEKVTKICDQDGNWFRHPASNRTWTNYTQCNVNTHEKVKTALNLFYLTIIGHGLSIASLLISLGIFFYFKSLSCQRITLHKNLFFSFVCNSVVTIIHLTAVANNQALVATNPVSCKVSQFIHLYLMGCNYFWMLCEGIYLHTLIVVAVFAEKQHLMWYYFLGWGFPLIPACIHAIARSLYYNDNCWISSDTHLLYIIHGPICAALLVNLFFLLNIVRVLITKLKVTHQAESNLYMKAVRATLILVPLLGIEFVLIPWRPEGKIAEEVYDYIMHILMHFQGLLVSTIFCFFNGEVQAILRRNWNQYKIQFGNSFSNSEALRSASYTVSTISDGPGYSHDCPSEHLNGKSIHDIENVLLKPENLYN

[11] = target: Alpha-2C adrenergic receptor (Homo sapiens) (UniProt P18825); assay: RLU of ADRA2C at 1.0 µM in the […] PRESTO-Tango GPCRome screen; conditions: Compound concentration 1.0 uM
[12] = target: Adhesion G protein-coupled receptor E5 (Homo sapiens) (UniProt P48960); assay: RLU of CD97 at 1.0 µM in the […] PRESTO-Tango GPCRome screen; conditions: Compound concentration 1.0 uM
[13] = target: Lysophosphatidic acid receptor 4 (Homo sapiens) (UniProt Q99677); assay: RLU of LPAR4 at 1.0 µM in the […] PRESTO-Tango GPCRome screen; conditions: Compound concentration 1.0 uM
Lysophosphatidic acid receptor 4 (Homo sapiens), sequence (Q99677 whole entry): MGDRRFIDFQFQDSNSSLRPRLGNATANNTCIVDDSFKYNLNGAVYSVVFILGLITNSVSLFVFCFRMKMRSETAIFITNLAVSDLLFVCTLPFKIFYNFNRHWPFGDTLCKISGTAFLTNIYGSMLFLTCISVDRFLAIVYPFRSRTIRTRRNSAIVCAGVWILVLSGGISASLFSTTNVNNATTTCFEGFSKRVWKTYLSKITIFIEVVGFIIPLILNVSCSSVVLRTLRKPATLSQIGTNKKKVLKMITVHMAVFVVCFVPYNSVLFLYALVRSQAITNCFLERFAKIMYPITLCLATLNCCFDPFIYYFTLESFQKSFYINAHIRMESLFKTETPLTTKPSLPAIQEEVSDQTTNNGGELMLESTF

[14] = target: Adhesion G protein-coupled receptor D2 (Homo sapiens) (UniProt Q7Z7M1); assay: RLU of GPR144 at 1.0 µM in the […] PRESTO-Tango GPCRome screen; conditions: Compound concentration 1.0 uM
Adhesion G protein-coupled receptor D2 (Homo sapiens), sequence (Q7Z7M1 whole entry): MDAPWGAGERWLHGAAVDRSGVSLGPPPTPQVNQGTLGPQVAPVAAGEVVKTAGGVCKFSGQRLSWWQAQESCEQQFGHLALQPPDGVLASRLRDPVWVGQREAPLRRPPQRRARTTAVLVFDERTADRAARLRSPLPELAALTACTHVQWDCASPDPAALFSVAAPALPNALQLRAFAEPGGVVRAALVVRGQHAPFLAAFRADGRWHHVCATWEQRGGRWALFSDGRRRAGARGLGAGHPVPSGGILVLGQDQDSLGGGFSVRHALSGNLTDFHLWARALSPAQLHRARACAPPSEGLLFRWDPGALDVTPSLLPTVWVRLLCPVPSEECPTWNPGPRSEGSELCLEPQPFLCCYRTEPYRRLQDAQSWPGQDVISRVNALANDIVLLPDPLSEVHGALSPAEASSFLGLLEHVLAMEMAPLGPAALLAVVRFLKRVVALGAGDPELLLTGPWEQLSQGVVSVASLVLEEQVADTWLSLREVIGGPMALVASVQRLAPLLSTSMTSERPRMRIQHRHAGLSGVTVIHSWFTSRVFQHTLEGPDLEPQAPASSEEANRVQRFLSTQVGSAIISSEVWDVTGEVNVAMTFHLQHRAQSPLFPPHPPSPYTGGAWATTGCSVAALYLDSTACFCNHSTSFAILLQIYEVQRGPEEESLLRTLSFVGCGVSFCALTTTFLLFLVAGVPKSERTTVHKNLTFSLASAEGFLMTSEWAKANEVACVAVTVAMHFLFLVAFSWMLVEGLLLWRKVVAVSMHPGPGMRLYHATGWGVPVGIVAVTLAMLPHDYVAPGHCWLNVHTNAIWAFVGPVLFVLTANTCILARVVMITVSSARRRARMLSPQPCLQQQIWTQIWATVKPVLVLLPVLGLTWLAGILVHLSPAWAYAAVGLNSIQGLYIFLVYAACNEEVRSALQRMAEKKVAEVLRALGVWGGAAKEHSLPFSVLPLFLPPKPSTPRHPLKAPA

[15] = target: Leukotriene B4 receptor 1 (Homo sapiens, UniProt Q15722); assay: IP-One assay (LTB4R), agonist mode at up to 50 µM; type: functional; set-up: compound concentration < 50 uM
[16] = target: 5-hydroxytryptamine receptor 6 (Homo sapiens) (UniProt P50406); assay: RLU of HTR6 at 1.0 µM in the […] PRESTO-Tango GPCRome screen; conditions: Compound concentration 1.0 uM
[17] = target: Putative P2Y purinoceptor 10 (Homo sapiens) (UniProt O00398); assay: RLU of P2RY10 at 1.0 µM in the […] PRESTO-Tango GPCRome screen; conditions: Compound concentration 1.0 uM
Putative P2Y purinoceptor 10 (Homo sapiens), sequence (O00398 whole entry): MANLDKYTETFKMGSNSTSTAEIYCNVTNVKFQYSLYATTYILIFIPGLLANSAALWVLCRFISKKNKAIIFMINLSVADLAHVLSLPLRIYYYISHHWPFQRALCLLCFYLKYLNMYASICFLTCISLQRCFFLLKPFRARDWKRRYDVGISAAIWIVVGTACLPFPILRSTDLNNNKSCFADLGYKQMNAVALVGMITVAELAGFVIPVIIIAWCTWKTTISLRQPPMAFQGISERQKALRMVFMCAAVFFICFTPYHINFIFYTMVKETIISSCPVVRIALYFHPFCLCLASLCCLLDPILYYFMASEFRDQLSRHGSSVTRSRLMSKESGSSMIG

[18] = target: P2Y purinoceptor 1 (Homo sapiens) (UniProt P47900); assay: RLU of P2RY1 at 1.0 µM in the […] PRESTO-Tango GPCRome screen; conditions: Compound concentration 1.0 uM
[19] = target: D(2) dopamine receptor (Homo sapiens) (UniProt P14416); assay: RLU of DRD2 at 1.0 µM in the […] PRESTO-Tango GPCRome screen; conditions: Compound concentration 1.0 uM
D(2) dopamine receptor (Homo sapiens), sequence (P14416 whole entry): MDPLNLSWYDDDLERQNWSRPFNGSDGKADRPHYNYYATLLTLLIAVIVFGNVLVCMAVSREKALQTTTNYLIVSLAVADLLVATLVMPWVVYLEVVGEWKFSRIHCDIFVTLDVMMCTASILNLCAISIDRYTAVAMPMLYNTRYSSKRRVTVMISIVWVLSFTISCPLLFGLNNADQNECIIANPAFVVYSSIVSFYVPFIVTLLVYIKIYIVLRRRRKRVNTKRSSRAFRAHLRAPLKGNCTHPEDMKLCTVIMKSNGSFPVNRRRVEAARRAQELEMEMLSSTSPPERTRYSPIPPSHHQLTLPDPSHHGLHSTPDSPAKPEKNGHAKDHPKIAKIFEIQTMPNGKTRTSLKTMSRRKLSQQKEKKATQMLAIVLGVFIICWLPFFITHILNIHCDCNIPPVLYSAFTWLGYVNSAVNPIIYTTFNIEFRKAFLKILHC

[20] = target: Mas-related G-protein coupled receptor member F (Homo sapiens) (UniProt Q96AM1); assay: RLU of MRGPRF at 1.0 µM in the […] PRESTO-Tango GPCRome screen; conditions: Compound concentration 1.0 uM
[21] = target: Somatostatin receptor type 5 (Homo sapiens) (UniProt P35346); assay: RLU of SSTR5 at 1.0 µM in the […] PRESTO-Tango GPCRome screen; conditions: Compound concentration 1.0 uM
[22] = target: Glucagon-like peptide 2 receptor (Homo sapiens) (UniProt O95838); assay: RLU of GLP2R at 1.0 µM in the […] PRESTO-Tango GPCRome screen; conditions: Compound concentration 1.0 uM
Glucagon-like peptide 2 receptor (Homo sapiens), sequence (O95838 whole entry): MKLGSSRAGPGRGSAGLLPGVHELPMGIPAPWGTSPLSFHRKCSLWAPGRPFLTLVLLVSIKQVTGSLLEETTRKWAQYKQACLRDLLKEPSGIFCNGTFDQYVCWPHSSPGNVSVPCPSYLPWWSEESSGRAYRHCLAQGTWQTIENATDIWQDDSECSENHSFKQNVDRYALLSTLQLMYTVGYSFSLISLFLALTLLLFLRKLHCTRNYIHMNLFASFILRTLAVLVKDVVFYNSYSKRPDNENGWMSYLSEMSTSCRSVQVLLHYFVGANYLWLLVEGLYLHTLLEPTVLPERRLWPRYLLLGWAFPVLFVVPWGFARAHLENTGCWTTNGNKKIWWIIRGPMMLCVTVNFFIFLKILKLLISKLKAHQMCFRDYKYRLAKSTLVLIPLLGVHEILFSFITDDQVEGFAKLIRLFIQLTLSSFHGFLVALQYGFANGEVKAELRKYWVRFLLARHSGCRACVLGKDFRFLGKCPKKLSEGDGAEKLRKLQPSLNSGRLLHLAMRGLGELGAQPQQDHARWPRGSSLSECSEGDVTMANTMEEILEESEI

[23] = target: Cysteinyl leukotriene receptor 2 (Homo sapiens) (UniProt Q9NS75); assay: RLU of CYSLTR2 at 1.0 µM in the […] PRESTO-Tango GPCRome screen; conditions: Compound concentration 1.0 uM
[24] = target: G-protein coupled receptor 61 (Homo sapiens) (UniProt Q9BZJ8); assay: RLU of GPR61 at 1.0 µM in the […] PRESTO-Tango GPCRome screen; conditions: Compound concentration 1.0 uM
[25] = target: P2Y purinoceptor 6 (Homo sapiens) (UniProt Q15077); assay: RLU of P2RY6 at 1.0 µM in the […] PRESTO-Tango GPCRome screen; conditions: Compound concentration 1.0 uM
[26] = target: Adhesion G protein-coupled receptor F4 (Homo sapiens) (UniProt Q8IZF3); assay: RLU of GPR115 at 1.0 µM in the […] PRESTO-Tango GPCRome screen; conditions: Compound concentration 1.0 uM
[27] = target: P2Y purinoceptor 2 (Homo sapiens) (UniProt P41231); assay: RLU of P2RY2 at 1.0 µM in the […] PRESTO-Tango GPCRome screen; conditions: Compound concentration 1.0 uM
[28] = target: Type-1 angiotensin II receptor (Homo sapiens, UniProt P30556); assay: IP-One assay (AGTR1), antagonist mode at up to 50 µM ( vs. 10 nM Val5-Angiotensin II); type: functional; set-up: compound concentration < 50 uM
[29] = target: 5-hydroxytryptamine receptor 1D (Homo sapiens) (UniProt P28221); assay: RLU of HTR1D at 1.0 µM in the […] PRESTO-Tango GPCRome screen; conditions: Compound concentration 1.0 uM
5-hydroxytryptamine receptor 1D (Homo sapiens), sequence (P28221 whole entry): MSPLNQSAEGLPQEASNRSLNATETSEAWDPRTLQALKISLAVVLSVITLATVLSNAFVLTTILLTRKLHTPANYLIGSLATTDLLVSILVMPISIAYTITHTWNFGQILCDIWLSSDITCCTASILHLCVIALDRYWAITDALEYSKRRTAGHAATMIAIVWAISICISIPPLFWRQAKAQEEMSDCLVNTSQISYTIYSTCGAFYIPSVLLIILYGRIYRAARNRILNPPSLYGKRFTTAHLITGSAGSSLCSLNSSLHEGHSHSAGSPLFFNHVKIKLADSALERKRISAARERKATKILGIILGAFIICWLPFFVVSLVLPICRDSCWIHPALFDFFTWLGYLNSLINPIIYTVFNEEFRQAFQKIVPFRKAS

[30] = target: Free fatty acid receptor 1 (Homo sapiens) (UniProt O14842); assay: RLU of FFA1 (GPR40) at 1.0 µM in the […] PRESTO-Tango GPCRome screen; conditions: Compound concentration 1.0 uM
Free fatty acid receptor 1 (Homo sapiens), sequence (O14842 whole entry): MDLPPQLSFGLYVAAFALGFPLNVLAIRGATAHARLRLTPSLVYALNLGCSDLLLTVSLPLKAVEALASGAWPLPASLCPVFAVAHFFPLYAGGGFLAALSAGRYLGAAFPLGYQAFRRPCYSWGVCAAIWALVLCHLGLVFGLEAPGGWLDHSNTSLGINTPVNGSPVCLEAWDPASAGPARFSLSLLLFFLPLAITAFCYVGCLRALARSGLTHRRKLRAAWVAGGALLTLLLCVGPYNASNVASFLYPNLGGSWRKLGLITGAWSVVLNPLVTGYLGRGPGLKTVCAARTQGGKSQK

[31] = target: Probable G-protein coupled receptor 173 (Homo sapiens) (UniProt Q9NS66); assay: RLU of GPR173 at 1.0 µM in the […] PRESTO-Tango GPCRome screen; conditions: Compound concentration 1.0 uM
Probable G-protein coupled receptor 173 (Homo sapiens), sequence (Q9NS66 whole entry): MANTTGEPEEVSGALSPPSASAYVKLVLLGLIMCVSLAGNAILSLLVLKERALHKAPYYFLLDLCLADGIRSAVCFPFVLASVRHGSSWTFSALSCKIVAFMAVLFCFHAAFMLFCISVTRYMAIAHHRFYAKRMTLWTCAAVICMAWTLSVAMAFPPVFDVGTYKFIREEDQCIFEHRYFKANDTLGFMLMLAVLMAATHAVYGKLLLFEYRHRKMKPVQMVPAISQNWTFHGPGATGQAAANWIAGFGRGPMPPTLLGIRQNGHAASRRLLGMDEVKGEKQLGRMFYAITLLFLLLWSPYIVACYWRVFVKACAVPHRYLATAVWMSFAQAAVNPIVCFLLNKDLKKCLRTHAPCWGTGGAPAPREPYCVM

[32] = target: G-protein coupled receptor 15 (Homo sapiens) (UniProt P49685); assay: RLU of GPR15 at 1.0 µM in the […] PRESTO-Tango GPCRome screen; conditions: Compound concentration 1.0 uM
[33] = target: Prokineticin receptor 1 (Homo sapiens) (UniProt Q8TCW9); assay: RLU of PK1 at 1.0 µM in the […] PRESTO-Tango GPCRome screen; conditions: Compound concentration 1.0 uM
[34] = target: Endothelin-1 receptor (Homo sapiens) (UniProt P25101); assay: RLU of EDNRA at 1.0 µM in the […] PRESTO-Tango GPCRome screen; conditions: Compound concentration 1.0 uM
[35] = target: Hydroxycarboxylic acid receptor 3 (Homo sapiens) (UniProt P49019); assay: RLU of HCA3 at 1.0 µM in the Aequorin PRESTO-Tango GPCRome screen; conditions: Compound concentration 1.0 uM
Hydroxycarboxylic acid receptor 3 (Homo sapiens), sequence (P49019 whole entry): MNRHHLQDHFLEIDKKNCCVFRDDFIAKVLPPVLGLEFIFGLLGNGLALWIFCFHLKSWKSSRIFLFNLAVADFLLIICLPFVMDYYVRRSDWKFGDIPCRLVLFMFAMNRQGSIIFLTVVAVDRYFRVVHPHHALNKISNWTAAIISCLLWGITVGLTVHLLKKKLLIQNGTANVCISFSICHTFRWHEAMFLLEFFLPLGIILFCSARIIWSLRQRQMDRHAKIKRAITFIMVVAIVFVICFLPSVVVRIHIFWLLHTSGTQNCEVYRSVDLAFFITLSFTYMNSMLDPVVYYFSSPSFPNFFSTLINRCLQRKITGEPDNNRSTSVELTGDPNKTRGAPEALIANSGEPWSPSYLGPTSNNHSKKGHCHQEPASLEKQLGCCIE

Structure (SMILES): CCCCC(=O)N1CC2(C1)CN(c1ccccc1-c1nnn[nH]1)C2
- RLU [1]: -4690
- RLU [2]: 1.74
- RLU [3]: 10100
- RLU [4]: 5.41
- RLU [5]: -5970
- RLU [6]: 3560
- RLU [7]: 9130
- RLU [8]: 4580
- RLU [9]: 31.8
- RLU [10]: 2370
- RLU [11]: 12100
- RLU [12]: -895
- RLU [13]: -668
- RLU [14]: 917
- EC50 [15]: > 50 µM (not active)
- RLU [16]: 5340
- RLU [17]: -82.4
- RLU [18]: 1690
- RLU [19]: 2200
- RLU [20]: -194
- RLU [21]: -946
- RLU [22]: -2690
- RLU [23]: -3190
- RLU [24]: 1400
- RLU [25]: -7240
- RLU [26]: -283
- RLU [27]: 2250
- EC50 [28]: > 50 µM (not active)
- RLU [29]: -12300
- RLU [30]: 2090
- RLU [31]: -36.4
- RLU [32]: 1710
- RLU [33]: 10800
- RLU [34]: -1160
- RLU [35]: 1810
